We go through 21 compounds from patent US9993002B2, “1,2,3-thiadiazol-5yl-urea derivatives, use thereof for regulating plant senescence and preparations containing these derivatives” (USTAV EXPERIMENTALNI BOTANIKY AV CR, V.V.I., priority 2014, dated 2018).

Data set [1] has as its system detached leaf segments of Triticum aestivum cv. Hereward. Kind of data set: Senescence bioassay on wheat leaf segments in dark conditions. Particulars: dark, 96 h, 25° C., chlorophyll absorbance 665 nm, read-out: Senescence bioassay (IC50). The procedure: (§1) Seeds of winter wheat, Triticum aestivum cv. Hereward, were washed under running water for 24 hours and then sown on perlite soaked with Hogland's solution. They were placed in the growth chamber at 25° C. with a 16/8 h light period at 50 μmol·m^−2·s^−1. After 7 days, the first leaf was fully developed and the second leaf had started to grow. A tip section of the first leaf, approximately 4 cm long, was removed from 4 seedlings and trimmed slightly to a combined weight of 100 mg. The basal ends of the four leaf tips were placed into the 96-wells plate containing 150 μL of the tested derivative solution each. The entire plate was inserted into a plastic box lined with paper tissues soaked in distilled water to prevent leaf sections from drying out. After 96 h incubation in the dark at 25° C., the leaves were removed and chlorophyll extracted by heating at 80° C. for 10 min in 5 mL of 80% ethanol (v/v). The sample volume was then restored to 5 mL by the addition of 80% ethanol (v/v). The absorbance of the extract was recorded at 665 nm. In addition, chlorophyll extracts from fresh leaves and leaf tips incubated in deionised water were measured. The results are means of five replicates and the entire test was repeated at least twice. […] The compounds to be tested were dissolved in dimethylsulfoxide (DMSO) and the solution brought up to 10^−3 M with distilled water. […] The IC50 values were determined for standard (BAP) and novel tested compounds.

Data set [2] has the same test system. Briefly: Senescence bioassay on wheat leaf segments in dark/light conditions. Particulars: foliar, 168 h, read-out: Senescence bioassay (IC50). Here is the method: as §1
The ability of the novel compounds to retard chlorophyll degradation in detached wheat leaves was tested also in the light conditions. The experiment was performed as described in Example 7 with modifications as follows—the incubation of the leaves with the compounds was done in the dark/light conditions 8/16 (light—100 μmol·m^−2·s^−1) at 22° C. for 7 days. […] The newly prepared substituted 1,2,3-thiadiazol-5-yl urea derivatives of the invention are much stronger anti-senescent compounds in comparison to the BAP in retarding senescence under optimal (dark/light) conditions.

Data set [3] has as its system Arabidopsis thaliana (wild-type Col-0). Kind of data set: Root growth and lateral root formation of Arabidopsis. Format: in vivo. The note with it: 10 nM; for Lateral root number / Primary root lenght: two weeks after transfer. Here is the method:
To investigate in vivo effect of the new derivatives on the root growth and development, seeds of Arabidopsis thaliana (wild-type Col-0) were surface sterilized and sown on vertical plates on half-strength Murashige-Skoog medium (supplied with 0.1% sucrose and 6 g/L phytagel) containing 10 nM BAP or 10 nM 1,2,3-thiadiazol-5-yl-urea derivative, or 0.01% DMSO (solvent control). After vernalization (4 days in the dark, 4° C.) plates were transferred into the growth chamber (22° C., 16/8 light/dark). Two weeks after transfer, seedlings were photographed and root elongation and lateral root formation was scored using Scion image software (Scion Corp., Frederick, Md., USA). At least 40 plants were measured for each treatment.

For data set [4], the system named is detached leaves of Triticum aestivum cv. Hereward. Briefly: Membrane lipid peroxidation (MDA, TBA method) in detached wheat leaves in the dark. Particulars: for MDA: four days in the dark. The procedure:
A typical symptom associated with senescence as a direct consequence of increased reactive oxygen species is membrane lipid peroxidation which produces malondialdehyde (MDA). Therefore the levels of MDA, a decomposition product of lipid peroxidation, were measured in detached wheat leaves that were exposed to the prepared novel derivatives or BAP for four days in the dark as described in Example 7. MDA levels were measured using a thiobarbituric acid (TBA) method. In detail, 100 mg of fresh plant material was homogenized by high speed shaking in a ball mill (MM301, Retsch, Germany) with 1 mL of 70% methanol. The crude extract was centrifuged at 10,000×g for 5 min, and 100 μL aliquot of supernatant was vortexed with 100 μL of 0.5% (w/v) TBA containing 0.1% (w/v) trichloroacetic acid, and the resulting solution was then incubated for 30 min at 95° C. The samples were quickly cooled on ice and centrifuged for 5 min at 1000 g. The absorbance of supernatant was measured at 532 nm with background subtraction at 600 nm and the amount of MDA-TBA complex was calculated from the coefficient of absorbance 155 mM^−1 cm^−1.

Data set [5] can be described thus: Toxicity towards human skin fibroblasts (Calcein AM assay). The class given is cell-based. Here is the method: Cytotoxicity of the compounds to human skin fibroblasts (BJ cell line) was determined in a standard Calceinovém AM test. Cells were maintained in plastic tissue culture flasks and grown in Dulbecco's modified Eagle's medium for cell culture (DMEM) at 37° C. in 5% CO2 and 100% humidity. Cells were placed into 96-well microtiter plates (Nunc, Denmark) and after 12 hours pre-incubation, the tested compound was added to a final concentration ranging from […]. Cells were incubated for 72 hours. At the end of incubation period Calcein AM was added in PBS to a final concentration of […]. After 1 hour of incubation fluorescence was measured at 485/538 nm (ex/em wavelength) using Fluoroskan Ascent (Labsystems, Finland). IC50 values (the concentration causing reduction of calcein AM conversion to 50%) were calculated from the curves obtained. All experiments were repeated four times with a maximum deviation of 15%. Due to the limited solubility of substances in water, all the tested compounds were dissolved in DMSO and diluted with water to a final concentration.

Another data set deals with wheat leaves. Briefly: Ethylene production (defoliating activity) assay. Set-up: species or system Triticum aestivum. Particulars: 10 μM; for Ethylene produced: 96 h in the dark at 25° C., control 270 (±15). The procedure: We investigated the effect of the compounds of the invention on ethylene production in wheat leaves. The leaves were obtained as described in Example 8, placed in 5 mL glass vials and immersed at 10 μM solutions of tested compounds of the invention or TDZ. Distilled water was used as a control treatment. After 96 h incubation in the dark at 25° C., 1 mL of air was taken from the vials and content of ethylene in it was determined using gas chromatography with the flame ionization detector (GC-FID) method described by Fišerová et al. (Fišerová H, Kula E, Klemš M, Reinöhl V (2001) Phytohormones as indicators of the degree of damage in birch (Betula pendula). Biológia 56: 405-409).

The mark [6] stands for this setting: dark/light 8/16, 22° C., 7 days.

For “1-(3,4-dihydro-2H-pyran-2-yl-methyl)-3-[1,2,3]thiadiazol-5-yl-urea [Compound 82]”, the concentration for half-maximal inhibition (IC50) in data set [1] came to 25 µM.

Take “1-(thiophen-2-yl-methyl)-3-[1,2,3]thiadiazol-5-yl-urea [Compound 76]”: the IC50 in data set [1] was 32 µM.

Take “1-(thiophen-2-yl-methyl)-3-[1,2,3]thiadiazol-5-yl-urea [Compound 78]”: in data set [1], the IC50 came out at 45 µM.

For `c1ccc(CNc2ncnc3nc[nH]c23)cc1` [6-benzylaminopurine (BAP), 6-benzylaminopurine, reference compound], the IC50 in data set [1] (Triticum aestivum, foliar) was 155 µM. The IC50 in data set [2] (setting [6]) was 123 µM. In addition, in data set [3], the “root development (in words)” value is “severely and significantly retarded”; the Lateral root number is recorded as 3.6 (±2); the Primary root lenght was 15 (±5) mm. Besides, in data set [4] (compared to untreated control), the “effect on peroxidation of membrane lipids (in words)” value is “does not decrease the peroxidation of membrane lipids significantly”. In addition, in data set [4], the MDA is listed as 19.1 (±1.7) nmol/g FW.

For the compound `O=C(NCCO)Nc1cnns1` [Compound 1, 1-(2-hydroxy-ethyl)-3-[1,2,3]thiadiazol-5-yl-urea], the IC50 in data set [1] (Triticum aestivum, foliar) is 26 µM.

On to `O=C(NCCCO)Nc1cnns1` [Compound 2, 1-(3-hydroxy-propyl)-3-[1,2,3]thiadiazol-5-yl-urea], for which the half-maximal inhibitory concentration (IC50) in data set [1] (Triticum aestivum, foliar) came to 9.1 µM; in data set [2] (setting [6]), 0.31 µM. The half-maximal cytotoxic concentration (CC50) at 72 h in data set [5] is more than 100 µM. Further, the Ethylene produced in the data set with wheat leaves is listed as 293 (±21) nL/g FW. Moreover, in data set [3], the Lateral root number is 12 (±6). The Primary root lenght in data set [3] was 39 (±9) mm. Also, the MDA in data set [4] is listed as 16.4 (±1.6) nmol/g FW.

For the compound `COCCCNC(=O)Nc1cnns1` [Compound 7, 1-(3-methoxy-propyl)-3-[1,2,3]thiadiazol-5-yl-urea], the half-maximal inhibitory concentration (IC50) in data set [1] (Triticum aestivum, foliar) amounted to 11.4 µM. Moreover, the concentration for half-maximal inhibition (IC50) in data set [2] (setting [6]) stood at 0.4 µM. Further, the CC50 at 72 h in data set [5] was more than 100 µM. For the same compound, the Ethylene produced in the data set with wheat leaves was 312 (±18) nL/g FW. Moreover, in data set [3], the Lateral root number is recorded as 14 (±10) and the Primary root lenght is on record as 40 (±10) mm. Further, the MDA in data set [4] is 14.4 (±0.8) nmol/g FW.

Regarding `COCCCCNC(=O)Nc1cnns1` [Compound 8, 1-(4-methoxy-butyl)-3-[1,2,3]thiadiazol-5-yl-urea], the 50% inhibitory concentration (IC50) in data set [1] (Triticum aestivum, foliar) amounted to 25.5 µM.

Turning to `COCCCCCNC(=O)Nc1cnns1` [Compound 9, 1-(5-methoxy-pentyl)-3-[1,2,3]thiadiazol-5-yl-urea], the IC50 in data set [1] (Triticum aestivum, foliar) amounted to 31 µM.

Take `COCCCCCCNC(=O)Nc1cnns1` [Compound 10, 1-(6-methoxy-hexyl)-3-[1,2,3]thiadiazol-5-yl-urea]: the IC50 in data set [1] (Triticum aestivum, foliar) stood at 45 µM.

Regarding `COC(CNC(=O)Nc1cnns1)OC` [Compound 16, 1-(2,2-dimethoxy-ethyl)-3-[1,2,3]thiadiazol-5-yl-urea], the IC50 amounted to 2.9 µM in data set [1] (Triticum aestivum, foliar) and 0.16 µM in data set [2] (setting [6]). Besides, in data set [5], the CC50 at 72 h is more than 100 µM. Further, in the data set with wheat leaves, the Ethylene produced is given as 267 (±23) nL/g FW. For the same compound, in data set [3], the Lateral root number was 19 (±9). Also, the Primary root lenght in data set [3] is 45 (±9) mm. Further, the MDA in data set [4] is listed as 11.6 (±1.2) nmol/g FW.

In the case of `C/C(=C\CNC(=O)Nc1cnns1)CO` [Compound 20, 1-((E)-4-hydroxy-3-methyl-but-2-enyl)-3-[1,2,3]thiadiazol-5-yl-urea], the IC50 turned out to be 12.6 µM in data set [1] (Triticum aestivum, foliar) and 0.61 µM in data set [2] (setting [6]). In data set [5], the 50% cytotoxic concentration (CC50) at 72 h is more than 100 µM. Moreover, the “effect on ethylene evolution compared to control (in words)” value with wheat leaves (96 h) is “inhibition of ethylene evolution”. In addition, the Ethylene produced with wheat leaves is listed as 254 (±22) nL/g FW. For the same compound, in data set [3], the Lateral root number is 11 (±6). Also, in data set [3], the Primary root lenght was 32 (±9) mm. The MDA in data set [4] is recorded as 15.8 (±0.7) nmol/g FW.

`CC(C)=CCNC(=O)Nc1cnns1` [Compound 21, 1-(3-methyl-but-2-enyl)-3-[1,2,3]thiadiazol-5-yl-urea]: the IC50 in data set [1] (Triticum aestivum, foliar) came to 97 µM.

Regarding `CC(O)CNC(=O)Nc1cnns1` (stereo not shown) [Compound 25, 1-(2-Hydroxy-propyl)-3-[1,2,3]thiadiazol-5-yl-urea], the IC50 in data set [1] (Triticum aestivum, foliar) is 3.5 µM. Further, the IC50 in data set [2] (setting [6]) is 0.1 µM. Also, the 50% cytotoxic concentration (CC50) at 72 h in data set [5] was more than 100 µM. In the data set on wheat leaves, the Ethylene produced is reported as 281 (±31) nL/g FW. In data set [3], the Lateral root number was 12 (±8) and the Primary root lenght is given as 35 (±0.8) mm. Also, the MDA in data set [4] is 12.6 (±0.83) nmol/g FW.

Regarding `O=C(NCCS)Nc1cnns1` [Compound 34, 1-(2-thio-ethyl)-3-[1,2,3]thiadiazol-5-yl-urea], the IC50 in data set [1] stood at 18 µM.

In the case of `O=C(NCCCS)Nc1cnns1` [Compound 35, 1-(3-thio-propyl)-3-[1,2,3]thiadiazol-5-yl-urea], in data set [1], the IC50 was determined as 12 µM.

As for `CSCCNC(=O)Nc1cnns1` [Compound 39, 1-(2-methylthio-ethyl)-3-[1,2,3]thiadiazol-5-yl-urea], the IC50 in data set [1] (Triticum aestivum, foliar) came out at 3.1 µM.

Take `CSCCCCCNC(=O)Nc1cnns1` [Compound 42, 1-(5-methylthio-pentyl)-3-[1,2,3]thiadiazol-5-yl-urea]: in data set [1] (Triticum aestivum, foliar), the IC50 is 10.5 µM.

As to `C#CCNC(=O)Nc1cnns1` [Compound 55, 1-prop-2-ynyl-3-[1,2,3]thiadiazol-5-yl-urea], the half-inhibitory concentration (IC50) in data set [1] (Triticum aestivum, foliar) stood at 22 µM. Further, the CC50 at 72 h in data set [5] was more than 100 µM. Further, in data set [3], the Lateral root number is on record as 15 (±8) and the Primary root lenght is given as 40 (±10) mm. In addition, the MDA in data set [4] is on record as 14.1 (±1.1) nmol/g FW.

As for `O=C(NCCCCCCBr)Nc1cnns1` [Compound 74, 1-(6-bromo-hexyl)-3-[1,2,3]thiadiazol-5-yl-urea], in data set [4] (compared to untreated control), the “level of membrane lipid peroxidation during dark senescence reduced to” value came out at 50.2%.

With `O=C(Nc1ccccc1)Nc1cnns1` [TDZ, thidiazuron, reference compound], the IC50 in data set [2] was 1.1 µM. For the same compound, in the data set with wheat leaves (96 h), the “elevation of ethylene production compared to untreated control” value is given as 133% and the “times higher production of ethylene than the novel tested compounds” value is on record as “at least 5 times”. The Ethylene produced in the data set on wheat leaves is 628 (±45) nL/g FW. In data set [3], the Lateral root number is given as 2.1 (±2) and the Primary root lenght is 10 (±4) mm.

What is called IC50 is the midpoint of a concentration-inhibition curve. Usually CC50 stands for the concentration that lowers cell viability or growth by half.
